Values joined by “and” are separate entries in the source; they are usually repeats but may differ in a detail not shown here. Equal entries are not always repeated.

Test [1] deals with stage 2 early-OPCs. Briefly: HD-DoE 8-factor model for stage 3 (version 1) on stage 2 early-OPCs. The test is classed as cell-based, human. The procedure:
(§1) To further differentiate the cells to an oligodendrocyte progenitor identity, additional HD-DoE experiments were performed on the cells that were cultured in stage 1 and stage 2 differentiation media. After 3 days, gene expression of cells in different combinatorial conditions were investigated. At this time, we focused on maximal expression of signature oligodendrocyte progenitor genes such as SOX10, OLIG1 and PDGFRa (Goldman and Kuypers (2015) Development 142:3983-95; Marques et al. (2016) Science 352:1326-1329). In one 8-factor model, individual and combinatorial effects of LDN193189, SUN 11602, Activin A, Biotin, TTNPB, Isoproterenol, linoleic acid and T3+T4 were tested.
The same model was also optimized for maximum expression of PDGFRa at 3510.9. Two factor specifically, TTNPB and Linoleic acid determined the expression level of PDGFRa with factor contribution of 71.6 and 22.1, respectively (FIG. 17). […] The model was also optimized for highest expression of SOX10 at 18.8. In this optimization, TTNPB was the only input that could elevate the expression level of the selected gene (FIG. 18).
Dynamic profile analysis was utilized to explore combination sets that can optimize expression of all three selected genes. […] Since Activin A is the main compound regulating expression level of OLIG1, we investigated the changes in the plots after addition of Activin A and observed that expression level of SOX10 is still in the target range and PDGFRa is expressed at a high level too (2520).

Test [2] deals with human pluripotent stem cells. Briefly: HD-DoE #2: 13-factor model, differentiation toward anterior neuroectoderm, gene expression. The test is classed as cell-based. The settings on record: model optimized for highest expression of FEZF2 at 4466; positive. From the text:
To further enhance the conditions for oligodendrocyte differentiation from pluripotency, we performed an additional HD-DoE experiment. We obtained additional gene regulatory models that were used for preparation of a differentiation protocol. The basis of this was a 13-factor HD-DoE experiment with focus on initiation of differentiation of cells toward anterior neuroectoderm. In this model, we focused on expression of FEZF2 and OTX2.
As shown in the results summarized in FIG. 4, the model was optimized for highest expression of OTX2 at 12755.9. According to the model of high expression of OTX2, seven effectors had positive contribution including MK2206, PD0325901, CHIR99021, LDN193189, Go6983, PD173074 and BLU9931 with highest factor contribution of 22.2 for MK2206 and lowest factor contribution of 1.7 for PD173074 and BLU9931.
As shown in the results summarized in FIG. 5, the model was optimized for highest expression of FEZF2 at 4466. When the model was optimized for maximum expression level of FEZF2, three effectors including LDN193189 with factor contribution of 19.5, PD0325901 with factor contribution of 14.6 and MK2206 with factor contribution of 12.3 were common with previous condition and three new effectors including purmorphamine-500 nM, XAV939 and SC79 were introduced.
As shown in the results summarized in FIG. 6, to fine-tune the recipe and find the optimum combination of factors for high expression of both OTX2 and FEZF2, dynamic profiling analysis was done. […] Therefore, these two factors were added to the optimized culture recipe.

Test [3] has as its system stage 2 early-OPCs. Briefly: HD-DoE 12-factor model for stage 3 (version 1) on stage 2 early-OPCs. Type of test: cell-based, human. The procedure: In another model, the effects of Activin A and TTNPB along with LDN193189, MHY1485, PDGF-AA, AICAR, FGF2, CHIR99021, DBZ, MK2206, Purmorphamine and T3+T4 were tested on gene profile of differentiating cells. When this model was optimized for maximum expression of SOX10 at 54.7, we observed Activin A again had positive regulatory impact on its expression, with factor contribution of 4.7. Other positive factors included MK2206, with the highest factor contribution at 16.2, MHY1485 at 11.49, CHIR99021 at 9.6, DBZ at 9.3, FGF2 at 3.6 and PDGF-AA, with factor contribution less than 3 (FIG. 20).
In this model, we also investigated the conditions of expression of another important OPC gene, CSPG4 (Goldman and Kuypers (2015) Development 142:3983-95: van Tilborg et al. (2018) Glia 66:221-238).
Dynamic profile analysis was used to better assess the impact of the factors on our selected genes and find the combination set that can optimize their expression (FIG. 22). According to this analysis, even though Activin A has a positive effect on SOX10, it decreases level of PDGFRa and OLIG1. […] Moreover, SOX10 is one of the main transcription factors of oligodendrocytes, along with OLIG2 and NKX2-2, that has shown the potential to commit the stem cells to oligodendrocytes in reprogramming efforts (Wang et al. (2014) Proc Natl Acad Sci USA 111:E2885-94; Garciá-León et al. (2018) Stem Cell Reports 10:655-672). […] One of the main challenges of differentiating cells to oligodendrocyte fate is controlling the mixed population and increasing the purity of the culture by committing more cells to oligodendrocyte over neuronal identity. Therefore, DBZ was excluded from the final recipe.
At this point, we investigated the expression profile of a larger group of genes defining oligodendrocyte progenitor population at a later stage, including ID2, CNP and BCAN (Perlman et al. (2020). Glia 68:1291-1303; Goldman and Kuypers (2015) Development 142:3983-95). In this model, these genes were expressed at 1900, 660 and 44, respectively.

Test [4] concerns human pluripotent stem cells. Briefly: HD-DoE #1: 8-factor model, 3-day treatment of pluripotent stem cells, gene expression. The test is classed as cell-based. The settings on record: for factor contribution: positive effect; for impact on NKX2-2 and OLIG2 expression levels: dynamic profile, 8-factor model. From the text:
This example utilizes a method of High-Dimensional Design of Experiments (HD-DoE), as previously described in Bukys et al. (2020) Iscience 23:101346. The method employs computerized design geometries to simultaneously test multiple process inputs and offers mathematical modeling of a deep effector/response space. The method allows for finding combinatorial signaling inputs that control a complex process, such as during cell differentiation. It allows testing of multiple plausible critical process parameters, as such parameters impact output responses, such as gene expression. Because gene expression provides hallmark features of the phenotype of, for example, a human cell, the method can be applied to identify, and understand, which signaling pathways control cell fate. In the current example, the HD-DOE method was applied with the intent to find conditions for induction of oligodendrocyte progenitor-expressed genes, directly from the pluripotent stem cell state.
Specifically, to develop a novel method to generate oligodendrocytes, the impact of agonists and antagonists of multiple signaling pathways (herein called effectors) were tested on expression of two sets of 53 pre-selected genes after a 3-day treatment. These effectors are small molecules that are commonly used during stepwise differentiation of stem cells to specific fates. Choice of the effectors were based on current literature on neural induction in anterior ectoderm and differentiation of stem cells to oligodendrocytes.
To test the effectors, experiments with at least 8 factors were designed that can assess the response of cells to 48 or more different combinations of effectors in a range of concentrations. To analyze the models, we focused on expression of genes expressed during early development of anterior neuroectoderm and oligodendrocytes including NKX2-2, OLIG2, OLIG1, and PDGFRA. The impact of each effector on gene expression level is defined by a parameter called factor contribution that is calculated for each effector during the modeling.
This model tested 8 factors: PD0325901, MK2206, TTNPB, SC79, MHY1485, ZM336372, AGN193109 and AZD3147.

For test [5], the system named is pre-OPCs. Briefly: HD-DoE 12-factor model for stage 2 (version 1), 3 days on stage 1 pre-OPCs. The test is classed as cell-based, human. The settings on record: optimized for maximum expression of OLIG2 at 1841.6. From the text:
To engineer the recipe of stage 2 of differentiation, cells were first cultured in the stage 1 media described in Example 1 and then treated with combinations of 8 or 12 factors for 3 days and the gene expression of cells in each condition was modeled. At this point, due to short duration of culture (only six days in vitro), we decided to focus on maximal expression of OLIG2 and maintenance of high expression of NKX2-2, while initiating expression of SOX10, OLIG1 and PDGFRa, to guide the cells towards oligodendrocyte fate (Emery and Lu (2015). Cold Spring Harb Perspect Biol. 7:a020461; Perlman et al. (2020). Glia 68:1291-1303; Goldman and. Kuypers (2015) Development 142:3983-95).
In one 12-factor model, the individual and combinatorial impact of SUN 11602 an agonist for FGF signaling pathway, FGF2, Activin A an activator of one of the receptors of TGF-b superfamily, A 8301, an inhibitor of TGF-b pathway, CHIR99021 a WNT activator, AGN193109 a RA antagonist, MK2206 an AKT inhibitor, Purmorphamine an agonist of SHH signaling pathway, AZD3147 an antagonist of mTOR pathway, MHY1485 an agonist of mTOR pathway, SC79 an agonist of AKT pathway and G06983 an inhibitor of PKC pathway, were tested.
Dynamic profile analysis was used to assess the expression levels of other genes of interests, such as NKX2-2, OLIG1 and SOX10, while the model is maximized for OLIG2. Activin A and SUN 11602 were brought down to zero due to their very low factor contribution. We observed when the model is optimized, the expression level of NKX2-2 is at 3000, PDGFRa at 1000, OLIG1 at 80 and SOX10 at 15 (FIG. 12).

Test [6] relates to cells cultured in stage 1 and stage 2 differentiation media. Briefly: HD-DoE 8-factor model for stage 3 (version 2). Type of test: cell-based, human. The method, then: as §1, with “142:3983-95:” for “142:3983-95;”, “TTNPB (an RA agonist), CHIR99021, FGF-2, IGF-1, AGN193109, Purmorphamine, MHY1485 (a mTOR pathway agonist)” for “LDN193189, SUN 11602, Activin A, Biotin, TTNPB, Isoproterenol, linoleic acid”, “SC79 (an AKT pathway agonist)” for “T3+T4”, “tested to guide the cells toward a SOX10/PDGFRa positive population. […] CHIR99021 was also positive, with a factor contribution of 8.1 (FIG. 33).” for “tested.”
Other positive factors were IGF-1, with a factor contribution of 11.2, CHIR99021, with a factor contribution of 8.5 and TTNPB, with a factor contribution below 1 (FIG. 34).
To confirm the impact of TTNPB, FGF-2 and IGF-1 on a bigger scale, we investigated the expression profile of a larger group of genes defining late oligodendrocyte progenitor population, such as ID2, CSPG4, FYN, SOX8, PLP1 and BCAN (Perlman et al. (2020). Glia 68:1291-1303; Goldman and Kuypers (2015) Development 142:3983-95; van Tilborg et al. (2018) Glia 66:221-238) and neuronal genes such as NEUROD1, NEUROG1 and NEUROG2 in presence of IGF-1, FGF-2 or TTNPB.

[7] abbreviates: optimized for maximum expression of OLIG1 at 256, positive impact.
The mark [8] stands for this setting: optimized for maximum expression of PDGFRa at 3510.9, positive.
The mark [9] stands for this setting: model optimized for maximum expression of NKX2-2.
Setting [10] is: model optimized for maximum expression of PDGFRA.

As for `c1ccc2c(-c3cnn4cc(-c5ccc(N6CCNCC6)cc5)cnc34)ccnc2c1` [LDN193189], the factor contribution was determined as 10.8 in test [1] (setting [7]); 19.5 in test [2]; 16.9 in test [3] (optimized for maximum expression of CSPG4 at 38.6, negative impact).
`CCCCC/C=C\C/C=C\CCCCCCCC(=O)O` [Linoleic acid]: the factor contribution in test [1] (setting [8]) is 22.1.
For the compound `O=[N+]([O-])c1ccc(Nc2nc(N3CCOCC3)nc(N3CCOCC3)n2)cc1` [MHY1485], the factor contribution is 13.8 in test [4] (setting [9]); 13.4 in test [4] (setting [10]); 22.5 in test [5] (negative impact); 11.49 and 11.5 in test [3] (optimized for maximum expression of SOX10 at 54.7, positive).
Turning to `O=C(NOC[C@H](O)CO)c1ccc(F)c(F)c1Nc1ccc(I)cc1F` [PD0325901], the factor contribution in test [2] was 14.6; in test [4] (setting [10]) it was 30.6 and 30.05. Besides, in test [4], the “impact on NKX2-2 and OLIG2 expression levels” value is reported as “negatively impacting”.
As to `CCOC(=O)C1=C(N)Oc2ccc(Cl)cc2C1C(C#N)C(=O)OCC` (centres unmarked) [SC79], the factor contribution in test [6] (optimized for SOX10 at 41.04, negative impact) amounted to 30.2; in test [4] (setting [9]) it was 1.47; in test [5] (positive regulatory effect) it was 3.6.
In the case of `Cc1c(C)c(NCC(=O)N(C)C2CCN(Cc3ccc(C(N)=O)cc3)CC2)c(C)c(C)c1N` [SUN 11602], in test [1] (setting [7]), the factor contribution came to 3.7.
`C/C(=C\c1ccc(C(=O)O)cc1)c1ccc2c(c1)C(C)(C)CCC2(C)C` [TTNPB]: in test [6] (factor plots vs concentration), the “effect on late OPC genes and neuronal genes” value was “negative effect of TTNPB on OPC genes and its positive effect on neuronal genes”. The factor contribution is 17.98 in test [6] (optimized for SOX10 at 41.04, positive); “below 1” in test [6] (optimized for maximum expression of PDGFRa at 853.4, positive); 8 in test [1] (optimized for highest expression of SOX10 at 18.8, positive); 19.11 and 19.1 in test [1] (setting [7]); 71.6 in test [1] (setting [8]); 31.3 in test [4] (setting [9]). Further, the factor contribution in test [4] (setting [10]) is 49.01; in test [3] (optimized for maximum expression of CSPG4 at 38.6, positive), 15.96 and 15.9.
In the case of `Cc1ccc(NC(=O)c2cccc(N(C)C)c2)cc1NC(=O)c1ccc(O)cc1` [ZM336372], the “impact on NKX2-2 and OLIG2 expression levels” value in test [4] is on record as “negatively impacting”. The factor contribution in test [4] (setting [10]) is less than 1.

Source of the values: US12729368B2, “Methods and compositions for generating oligodendrocyte progenitor cells” (Trailhead Biosystems Inc., priority 2022, dated 2026).
